# Tests used:
# [1] = tested on: human subjects with class II New York Heart Association congestive heart failure; assay: infusion into human subjects with congestive heart failure; format: in vivo
# Procedure: Human proANF's 1-30, 31-67, 79-98, and 99-126 (i.e., ANF) were infused into human subjects with class II New York Heart Association congestive heart failure. An identical protocol to that used in example V where these peptides were infused into healthy human subjects was utilized. (See Attachment C for a detailed description of this protocol). The human subjects with congestive heart failure received an identical dose (0.1 μg/kg body wt/minute for 60 minutes) that the healthy human subjects received.
# [2] = tested on: renal medullary Na+-K+-ATPase; assay: inhibition of renal medullary Na+-K+-ATPase activity; format: biochemical; settings: 10^-11 M
# [3] = tested on: porcine aorta; assay: vasodilation of porcine aortic strips preconstricted with 0.3 micromolar phenylephrine; parameters: species or system pig
# Procedure: 30 Kg pigs are sacrificed, and aortic strips are harvested. The strips are attached to F-60 transducer (Narco-BioSystems, Houston, Tex.) and attached to a physiography (Narco-BioSystems) while being submerged in a muscle tissue bath comprising a Krebs Ringer solution at 37° C., with 95% 02 -5% CO2, bubbled through the bath. Percentage vasodilation is measured versus time (as reported in FIG. 1) after preconstriction with 0.3 micromolar phenylephrine.
# [4] = tested on: healthy human subjects; assay: infusion into healthy human subjects; format: in vivo; settings: healthy humans
# Procedure: Infusion of these peptides into healthy human subjects was performed as follows: Human pro-ANF 1-30, pro-ANF 31-67, and pro-ANF 79-98, and hANF (i.e., pro-ANF […], were synthesized by Peninsula Laboratories (Belmont, Calif.). High pressure liquid chromatography (HPLC) analysis was performed on a sample of each of the four peptides to ensure purity. The peptides were dissolved in a sterile 0.9% saline solution to a concentration of 100 μg/ml and dispensed in 2 and 5 ml aliquots into sealed sterile vials. At the time of dispensing, randomly selected vials were tested for pyrogens and sterility. Prior to labeling the vials, the actual peptide content of the dispensed solution were determined by direct radioimmunoassay to account for any possible absorption of the respective peptides to the walls of the vials. All vials were then stored at -80° C. until thawed for individual study.
# Normal healthy subjects were chosen on the basis of age (between 20 and 50 years), physical examination and biochemical screenings. The subjects consumed their normal diets prior to testing. The subjects fasted overnight and were tested in the morning in the seated position. Intravenous catheters were placed bilaterally for the administration of pro-hANF 1-30, pro-hANF 31-67, pro-hANF 79-98 and hANF [pro-hANF 99-126] and for blood sampling. After completion of a 45-minute equilibration period, there were three 60-minute phases of the study: baseline, experimental infusion (60 minutes) and recovery (3 hours). The baseline phase consisted of two 30 minute urine collection periods, the experimental phase consisted of three 20 minute urine and plasma collection periods, and the recovery phase consisted of two 30 minute urine and plasma collection periods each hour for three hours post-infusion. Urine output was replaced on a milliliter per milliliter basis throughout the study by administering oral water or orange juice. Urine samples were obtained by voiding at the designated collection periods.
# The 36 subjects were divided into 6 groups. One group (i.e., the control group) received a placebo infusion of 0.9% sodium chloride during the experimental infusion phase. […] The four remaining groups of six subjects each received human pro-hANF 1-30, pro-hANF 31-67, pro-hANF 79-98 and hANF. The four groups received the peptides by continuous infusion at the rate of 0.1 μg/kg per minute. The volume administered per hour during the experimental infusion phase was 10 ml for all four peptides and the placebo. All infusions were given by a constant-rate infusion pump, with the final concentrations of prohANFs adjusted for the subjects' body weight. The subjects heart rate and cuff blood pressure were taken at 5 minute intervals throughout the study. The excreted urine was analyzed for sodium concentration.
# [5] = tested on: rats who have acute renal failure; assay: blood urea nitrogen in rats with acute renal failure; format: in vivo, rat; settings: over three days
# Description: FIG. 6. ProANF 31-67 (i.e., vessel dilator) prevents the rise in blood urea nitrogen (BUN) in rats who have acute renal failure.
# [6] = tested on: Munich-Wistar rats; assay: rat clearance model (diuresis and salt excretion); format: in vivo
# Procedure: The same three peptides and ANF from Example I are tested using the rat clearance model. Six control rats and six experimental Munich-Wistar rats, each weighing 150-200 grams, are used for each peptide, with catheters being placed in both jugular veins and in the femoral artery. The ureters are cannulated for simultaneous urine collections with femoral artery blood collections.
# After inserting the catheters, a stabilization of one hour is allowed. A 10 μg/kg bolus of each of the respective human sequences of the peptides is given via the jugular vein to six experimental rats followed by a sustaining infusion of 0.1 μg/kg/min for 60 minutes. Blood and urine samples are collected at 20 minute intervals during this 60 minute infusion. In both the control and experimental animals, hematocrits and plasma sodium values remained at the same levels pre- and post-infusion while blood pressure decreased with each of these peptides (see Attachment B).
# [7] = overcoming the negative ionotropic effect of Verapamil
# [8] = tested on: particulate guanylate cyclase; assay: particulate guanylate cyclase activity in the kidney; format: biochemical; settings: 1 μM; whole kidney homogenates, renal cortical and medullary membranes, isolated distal nephron
# Procedure: Testing is also carried out to determine biologic effects of these peptides by measuring their effects on particulate guanylate activity in the kidney.
# [9] = tested on: particulate guanylate cyclase; assay: cyclic GMP / particulate guanylate cyclase activation in cultured smooth muscle cells and porcine aorta; format: cell-based; settings: cultured smooth muscle cells
# [10] = congestive heart failure, 0.1 μg/kg body wt/minute
substance,measurement,setting,value
"H-EVVPPQVLSEPNEEAGAALSPLPEVPPWTGEVSPAQR-OH [proANF 31-67, H-Glu-Val-Val-Pro-Pro-Gln-Val-Leu-Ser-Glu-Pro-Asn-Glu-Glu-Ala-Gly-Ala-Ala- Leu-Ser-Pro-Leu-Pro-Glu-Val-Pro-Pro-Trp-Thr-Gly-Glu-Val-Ser-Pro-Ala-Gln-Arg-OH]",urine output at 3 hours after stopping the infusion relative to pre-infusion values,[1]; congestive heart failure,10 fold
same,diuretic properties (in words),[1]; congestive heart failure patients,stronger diuretic properties than ANF
same,urine output in 20 minutes of infusion,[1]; [10],doubled
same,urine output increase at the end of the 60 minute infusion,[1]; [10],7 fold
same,urine output per 30 minute period,"[1]; congestive heart failure, 3 hours after stopping the infusion (pre-infusion 30 mls)",320 mls
same,increase of sodium excretion,[1]; human subjects with congestive heart failure,three-to-eight
same,time after stopping the infusion for which diuresis / urine flow is still significantly (P<0.01) elevated,[1]; humans with congestive heart failure,at least 3 hours
same,inhibition of renal medullary Na+-K+-ATPase activity,[2],Inhibition of renal medullary Na+-K+-ATPase activity
same,increase in cyclic GMP levels over baseline levels,[3]; associated with vasodilation of porcine aorta,four-to-five
same,vasodilation,[3]; porcine aorta,cause vasodilation
same,increase of urine flow,[4],4-12 fold
same,urine volume / urine flow (in words),[4]; 100 ng/kg body wt per minute for 1 hour i.v.,increase in urine volume
same,sodium excretion compared to baseline (in words),[4]; 100 ng/kg body wt per minute for 60 minutes,significantly (P<0.05) increased sodium excretion
same,systolic and diastolic blood pressures,[4]; 100 ng/kg/min i.v. for 60 minutes,decreasing systolic and diastolic blood pressures
same,rise in blood urea nitrogen (BUN),[5],completely blocked the increase in BUN
same,"UNa V, urinary sodium excretion rate","[6]; period A, control period (before peptide)",144.08 ± 56.75 μeq-min^-1 -g kidney wt^-1
same,"UNa V, urinary sodium excretion rate","[6]; period B, 1st 60min experimental period, 10 μg/kg bolus then 0.1 μg/kg/min","1,057.68 ± 371.69 μeq-min^-1 -g kidney wt^-1"
same,"UNa V, urinary sodium excretion rate","[6]; period C, 2nd 60min experimental period","1,077.63 ± 306.10 μeq-min^-1 -g kidney wt^-1"
same,negative ionotropic (slowing heartbeat) effect of Verapamil,[7],can overcome the negative ionotropic (slowing heartbeat) effect
same,particulate guanylate cyclase activity,[8],enhance particulate guanylate cyclase
same,cyclic GMP levels,[9],increase cyclic GMP levels

# From US5691310A, “Methods of treatment using proANF peptides” (priority 1995, dated 1997)
